The record followed here is patent US12213482B2, “Fungicide enhancers effective for treating plants infected with fungal pathogens” (Board of Regents, The University of Texas System, priority 2015, dated 2025).

Common to all, as to type: cell-based
The test system of test [1] is Verticillium dahliae. Nature of the test: Antifungal susceptibility disk test, fungicide disk plus apyrase inhibitor in plate. As to conditions: inhibitor 65 μM, 30° C., 12 days; for inhibitory effect on the growth of V. dahliae compared to copper octanoate alone: combined with copper octanoate (285 mM) disk, FIG. 6A; for inhibitory effect on the growth of V. dahliae compared to propiconazole alone: combined with propiconazole (418 mM) disk, FIG. 6C. As to the method:
(§1) Copper Octanoate, 6B. Propiconazole, and 6C. Myclobutanil against the pathogenic fungi Verticillium dahliae. […] The equivalent volume of dimethylsulphoxide (DMSO) was added as a control. The studies were repeated two times with similar results. Error bars indicate standard deviations (n=5). The significances of the potency of fungicides are indicated: *** (Student's t-test, P<0.00)); **(Student's t-test, P<0.01) or *(Student's t test, P<0.05). The plant pathogenic fungal strains Botrytis cinerea, Colletotrichum graminicola, Fusarium oxysporum, Sclerotiana sclerotiorum and Verticillium dahliae were obtained from the Institute for Plant Genomics & Biotechnology, Texas A & M University, USA Potato dextrose agar (PDA, Sigma-Aldrich) was routinely used for the growth of different pathogenic fungal strain. Ectophosphatase inhibitors NGXT191 (AI.1), AI.10, NGXT1913 (AI.13), and AI. 15 were used dal this study. The fungicides copper octanoate (C16H30CuO4), myclobutanil (C15H17ClN4) and propiconazole (C15H17Cl2N3O2) were used. The concentrations of these compounds used were copper octanoate (285 mM), myclobutanil (53.6 mM) and propiconazole (418 mM). Standard antifungal susceptibility disk tests were performed to determine any potentiating effect of ectophosphatase inhibitors on the growth of pathogenic fungus. The pathogenic fungus wild-type strains were plated on PDA medium with paper-disks containing, fungicides at the center of the plate. […] Plates were incubated at 30° C. for 7-days (C. graminicola and S. sclerotiorum) or 12-days (B. cinerea, F. oxysporum and V. dahliae), depending on the growth rate of the fungi. Plates were photographed, and the zone of fungal growth inhibition was measured by using IMAGE J™ software (NIH, USA). All the tests were performed with 5 replicates. The studies were performed two times. Results were analyzed for significance using Student T-tests.

The subject of test [2] is Colletotrichum graminicola. The description is as above. As to conditions: inhibitor 65 μM, 30° C., 7 days; for inhibitory effect on the growth of C. graminicola compared to myclobutanil alone: combined with myclobutanil (53.6 mM) disk, FIG. 3B; for inhibitory effect on the growth of C. graminicola compared to copper octanoate alone: combined with copper octanoate (285 mM) disk, FIG. 3A. The method, then:
as §1, with “3B.” for “6B.”, “3C.” for “6C.”, “Colletotrichum graminicola.” for “Verticillium dahliae.”, “P<0.001;” for “P<0.00));”, “t-test,” for “t test,”

Test [3] has as its system plant pathogenic fungi. Nature of the test: Fungal plate assays, apyrase inhibitors tested alone. As to conditions: apyrase inhibitor alone, no fungicide. As to the method: Standard antifungal susceptibility disk tests were performed to determine any potentiating effect of ectophosphatase inhibitors on the growth of pathogenic fungus. The pathogenic fungus wild-type strains were plated on PDA medium with paper-disks containing, fungicides at the center of the plate. […] Plates were incubated at 30° C. for 7-days (C. graminicola and S. sclerotiorum) or 12-days (B. cinerea, F. oxysporum and V. dahliae), depending on the growth rate of the fungi. Plates were photographed, and the zone of fungal growth inhibition was measured by using IMAGE J™ software (NIH, USA). All the tests were performed with 5 replicates. The studies were performed two times. Results were analyzed for significance using Student T-tests.

For test [4], the system named is Botrytis cinerea. The experiment in a line: Antifungal susceptibility disk test, fungicide disk plus apyrase inhibitor in plate. As to conditions: inhibitor 65 μM, 30° C., 12 days; for inhibitory effect on the growth of B. cinerea compared to propiconazole alone: combined with propiconazole (418 mM) disk, FIG. 2C; for inhibitory effect on the growth of B. cinerea compared to myclobutanil alone: combined with myclobutanil (53.6 mM) disk, FIG. 2B. As to the method:
as §1, with “2A. Copper” for “Copper”, “2B.” for “6B.”, “2C.” for “6C.”, “Botrytis cinerea.” for “Verticillium dahliae.”, “P<0.001); ** (Student's” for “P<0.00)); **(Student's”, “t-test,” for “t test,”

Take `CCCCCCCSC(=O)c1cc2ccccc2oc1=O` [AI.10, S-heptyl 2-oxo-2H-chromene-3-carbothioate]: in test [1], the “inhibitory effect on the growth of V. dahliae compared to copper octanoate alone” value was “significantly greater inhibitory effect” and the “inhibitory effect on the growth of V. dahliae compared to propiconazole alone” value was “significantly greater inhibitory effect”. Further, the “inhibitory effect on the growth of C. graminicola compared to myclobutanil alone” value in test [2] is “significantly greater inhibitory effect”. In test [3], the “fungicidal activity when tested alone” value is recorded as “no fungicidal activity was detected”. The “inhibitory effect on the growth of B. cinerea compared to propiconazole alone” value in test [4] was “greater inhibitory effect”.
As for `C/C(=N\NC(=O)c1cccc(C)c1)c1ccc2ccccc2c1` [AI.15, (E)-3-methyl-N′-(1-(naphthalen-2-yl)ethylidene)benzohydrazide], in test [1], the “inhibitory effect on the growth of V. dahliae compared to copper octanoate alone” value is recorded as “significantly greater inhibitory effect” and the “inhibitory effect on the growth of V. dahliae compared to propiconazole alone” value is “significantly greater inhibitory effect”. Also, the “inhibitory effect on the growth of V. dahliae compared to myclobutanil alone” value in test [1] (combined with myclobutanil (53.6 mM) disk, FIG. 6B) is “significantly greater inhibitory effect”. The “inhibitory effect on the growth of C. graminicola compared to myclobutanil alone” value in test [2] is recorded as “significantly greater inhibitory effect”. The “fungicidal activity when tested alone” value in test [3] is listed as “no fungicidal activity was detected”. Besides, in test [4], the “inhibitory effect on the growth of B. cinerea compared to myclobutanil alone” value is on record as “significantly greater inhibitory effect” and the “inhibitory effect on the growth of B. cinerea compared to propiconazole alone” value is “greater inhibitory effect”.
On to `Cc1cccc(NS(=O)(=O)c2ccc(-c3ccccc3)cc2)c1` [AI.1, N-(m-tolyl)-[1,1′-biphenyl]-4-sulfonamide], for which the “inhibitory effect on the growth of V. dahliae compared to copper octanoate alone” value in test [1] is listed as “significantly greater inhibitory effect”. In test [2], the “inhibitory effect on the growth of C. graminicola compared to copper octanoate alone” value is listed as “significantly greater inhibitory effect” and the “inhibitory effect on the growth of C. graminicola compared to myclobutanil alone” value is on record as “significantly greater inhibitory effect”. Moreover, the “fungicidal activity when tested alone” value in test [3] is given as “no fungicidal activity was detected”. Also, in test [4], the “inhibitory effect on the growth of B. cinerea compared to myclobutanil alone” value is listed as “significantly greater inhibitory effect” and the “inhibitory effect on the growth of B. cinerea compared to propiconazole alone” value is “greater inhibitory effect”.
Take `O=C(Nc1cccc([N+](=O)[O-])c1)c1cccc(S(=O)(=O)Nc2ccc(Br)cc2)c1` [AI.13, 3-(N-(4-bromophenyl)sulfamoyl)-N-(3-nitrophenyl)benzamide]: the “inhibitory effect on the growth of V. dahliae compared to copper octanoate alone” value in test [1] is recorded as “significantly greater inhibitory effect”. For the same compound, in test [2], the “inhibitory effect on the growth of C. graminicola compared to copper octanoate alone” value is “significantly greater inhibitory effect” and the “inhibitory effect on the growth of C. graminicola compared to myclobutanil alone” value is given as “significantly greater inhibitory effect”. Also, in test [3], the “fungicidal activity when tested alone” value is listed as “no fungicidal activity was detected”. Besides, in test [4], the “inhibitory effect on the growth of B. cinerea compared to myclobutanil alone” value is “significantly greater inhibitory effect”.
